The results in this text go back to patent publication US4605514A, “Des-4-leucine-calcitonin” (Armour Pharmaceutical Company, priority 1984, dated 1986).

This test relates to Rats. Description: Biological assay of calcitonin analogs in vivo: reduction of serum calcium concentration vs synthetic salmon calcitonin standard, 2×2 parallel line assay. Conditions: standard used in the assay; independently determined. How it is done: Biological Assay Of Calcitonin Analogs In Vivo
The biological potency of des-4-leucine-salmon calcitonin was determined by comparing the reduction of serum calcium concentration which followed administration by graded doses of des-Leu^4 -SCT and synthetic salmon calcitonin standard. Rats were divided into four groups of seven animals, and each group was assigned at random to a dose of standard or test solution. Low and high doses were chosen from the linear portion of the dose-response curve. For the salmon calcitonin standard, the values were 0.7 and 2.1 ng. peptide/100 g. body weight (BW). This dose approximates 3 and […]/100 g. BW. Peptides were given by subcutaneous injection (0.2 ml/100 g. BW) and blood was withdrawn 1 hour later for serum calcium determination. Sera are processed and analyzed within two hours of collection. […]. Results were analyzed by a 2×2 parallel line assay [Gaddum, J. H., J. Pharm. Pharmacol., 6, 345 (1953)]. The standard salmon calcitonin used was independently determined to contain greater than 4,000 IU/mg. des-Leu^4 -SCT assayed at 5400 IU/mg.

Each structure is given as a SMILES string.

As to `CC(C)C[C@H](NC(=O)[C@H](CCCCN)NC(=O)CNC(=O)[C@H](CC(C)C)NC(=O)[C@@H](NC(=O)[C@@H]1CSSC[C@H](N)C(=O)N[C@@H](CO)C(=O)N[C@@H](CC(N)=O)C(=O)N[C@@H](CC(C)C)C(=O)N[C@@H](CO)C(=O)N[C@@H]([C@@H](C)O)C(=O)N1)C(C)C)C(=O)N[C@@H](CO)C(=O)N[C@@H](CCC(N)=O)C(=O)N[C@@H](CCC(=O)O)C(=O)N[C@@H](CC(C)C)C(=O)N[C@@H](Cc1c[nH]cn1)C(=O)N[C@@H](CCCCN)C(=O)N[C@@H](CC(C)C)C(=O)N[C@@H](CCC(N)=O)C(=O)N[C@H](C(=O)N[C@@H](Cc1ccc(O)cc1)C(=O)N1CCC[C@H]1C(=O)N[C@@H](CCCNC(=N)N)C(=O)N[C@H](C(=O)N[C@@H](CC(N)=O)C(=O)N[C@H](C(=O)NCC(=O)N[C@@H](CO)C(=O)NCC(=O)N[C@H](C(=O)N1CCC[C@H]1C(N)=O)[C@@H](C)O)[C@@H](C)O)[C@@H](C)O)[C@@H](C)O` [standard salmon calcitonin, Salmon calcitonin], the “potency content of the standard salmon calcitonin” value is on record as “greater than 4,000 IU/mg”.
